Reference: ChEMBL document CHEMBL4739717, “Methods of treating cartilage disorders through inhibition of clk and dyrk” (2020)

Legend:
[1] = Effect on Wnt signaling pathway in human SW480 cells harbouring TCF/LEF luciferase reporter gene and SP5-Luc reporter gene incubated for 36 to 48 hrs by luminescence assay; format: cell-based
[2] = molecular target: Dual specificity tyrosine-phosphorylation-regulated kinase 1A (Homo sapiens, UniProt Q13627); experiment: Inhibition of recombinant DYRK1A (unknown origin) using Ser/Thr 18 peptide as substrate incubated for 1 hr in presence of ATP by FRET assay
[3] = Induction of chondrogenesis in human MSC assessed as maximum activity at 100 nM incubated for 6 days by rhodamine B and Nile red staining based imaging analysis relative to control; format: functional; settings: BMMSC, 144 h, time 6 day
[4] = Induction of chondrogenesis in human MSC assessed as maximum activity at 30 nM incubated for 6 days by rhodamine B and Nile red staining based imaging analysis relative to control; format: functional; settings: BMMSC, 144 h, time 6 day
[5] = Inhibition of IL1-beta induced MMP3 expression levels in human chondrocytes assessed as MMP3 levels incubated for 2hrs followed by IL1-beta stimulation and measured after overnight incubation by LANCE assay; format: functional, cell-based; settings: Chondrocyte
[6] = Induction of chondrogenesis in human MSC assessed as incubated for 6 days by rhodamine B and Nile red staining based imaging analysis; format: functional; settings: bmmsc

Row | SMILES | EC50 [1] [µM] | EC50 [2] [µM] | Emax at 0.1 µM [3] [%] | Emax at 0.03 µM [4] [%] | EC50 [5] [µM] | EC50 [6] [µM]
1 | CCNCc1cncc(-c2cnc3[nH]nc(-c4cc5c(-c6ccccc6F)cncc5[nH]4)c3c2)c1 | 2.29 | 0.014 | 37.3 |  |  | 
2 | O=C(Nc1cncc(-c2cnc3[nH]nc(-c4cc5cccnc5[nH]4)c3c2)c1)C1CCCCC1 | 1.26 | 0.011 | 28.5 |  |  | 
3 | O=C(CC1CCNCC1)Nc1cncc(-c2ccc3[nH]nc(-c4cc5c(N6CCCCC6)nccc5[nH]4)c3n2)c1 | > 10 | 0.006 |  | 21.8 | 1.47 | 
4 | CN(C)Cc1cncc(-c2cnc3[nH]nc(-c4nc5c(-c6cccs6)cncc5[nH]4)c3c2)c1 | 0.048 | 0.009 |  | 146 | 3 | 0.03
5 | Fc1cccc(-c2cncc3[nH]c(-c4n[nH]c5ncc(-c6cccnc6)cc45)cc23)c1 | 0.573 | 0.057 | 35.6 |  |  | 
6 | c1cncc(-c2cnc3[nH]nc(-c4nc5c(-c6cccnc6)cncc5[nH]4)c3c2)c1 | > 10 | 0.086 | 62.9 |  |  | 
7 | O=C(Cc1ccccc1)Nc1cncc(-c2ccc3[nH]nc(-c4nc5c(-c6cccc(F)c6)cncc5[nH]4)c3c2)c1 | 0.023 | 0.024 | 124 |  |  | 0.1
8 | CC(C)C(=O)Nc1cncc(-c2cc3c(-c4cc5cnccc5[nH]4)n[nH]c3cn2)c1 | 0.399 | 0.001 | 61.2 |  |  | 0.03
9 | CC(C)Nc1cncc(-c2ccc3[nH]nc(-c4nc5c(-c6cccnc6)ccnc5[nH]4)c3n2)c1 | 1.75 | 0.014 | 114 |  |  | 0.01
10 | CC(C)(C)CC(=O)Nc1cncc(-c2ccc3[nH]nc(-c4cc5c(-c6ccoc6)ccnc5[nH]4)c3c2)c1 | 0.89 | 0.02 | 21.2 |  |  | 
11 | CN1CCN(c2nccc3[nH]c(-c4n[nH]c5ccc(-c6cncc(NC(=O)C7CCCCC7)c6)cc45)cc23)CC1 | 5.27 | 0.022 | 37.8 |  |  | 
12 | O=C(Nc1cncc(-c2cnc3[nH]nc(-c4cc5c(-c6ccncc6)cncc5[nH]4)c3c2)c1)C1CCC1 | > 10 | 0.004 |  | 43.5 | 0.0179 | 
13 | Cc1cn(-c2ccnc3[nH]c(-c4n[nH]c5ccc(-c6cncc(NC(=O)C(C)(C)C)c6)nc45)nc23)cn1 | > 10 | 0.022 | 70.2 |  |  | 0.01
14 | Cc1ccncc1-c1ccc2[nH]nc(-c3cc4c(-c5cccnc5)cncc4[nH]3)c2n1 | > 10 | 0.045 | 149 |  |  | 0.01
15 | CN1CCN(c2cncc3[nH]c(-c4n[nH]c5ccc(-c6cncc(CNCc7ccccc7)c6)cc45)cc23)CC1 | 3.29 | 0.007 |  | 101 | 0.329 | 0.03
16 | c1cnc2[nH]c(-c3n[nH]c4ccc(-c5cncc(OCCN6CCCC6)c5)cc34)cc2c1 | 3.29 | 0.01 | 42.7 |  |  | 
17 | Nc1cncc(-c2cc3c(-c4cc5c(N6CCCCC6)cncc5[nH]4)n[nH]c3cn2)c1 | 2.96 | 0.006 | 93.5 |  |  | 0.03
18 | CN(C)CCOc1cncc(-c2ccc3[nH]nc(-c4nc5c(-c6cccs6)cccc5[nH]4)c3n2)c1 | 3.11 | 0.041 | 142 |  |  | 0.01
19 | O=C(Nc1cncc(-c2cnc3[nH]nc(-c4cc5c(-c6cccs6)nccc5[nH]4)c3c2)c1)C1CCC1 | 0.473 | 0.046 | 82.2 |  |  | 0.1
20 | CS(=O)(=O)NCc1cc(F)cc(-c2cncc3[nH]c(-c4n[nH]c5ccc(-c6cncc(NC(=O)C7CCC7)c6)cc45)cc23)c1 | 0.554 | 0.034 | 14.5 |  |  | 
21 | CC(C)(C)C(=O)Nc1cncc(-c2ccc3[nH]nc(-c4nc5c(N6CCCCC6)cncc5[nH]4)c3c2)c1 | 0.041 | 0.008 | 114 |  |  | 0.1
22 | CC(C)CC(=O)Nc1cncc(-c2cnc3[nH]nc(-c4cc5c(-c6ccncc6)cccc5[nH]4)c3c2)c1 | 0.711 | 0.023 | 71.4 |  |  | 0.03
23 | CN1CCN(c2nccc3[nH]c(-c4n[nH]c5ccc(-c6cncc(NC(=O)c7ccccc7)c6)cc45)cc23)CC1 | 2.14 | 0.016 | 34.6 |  |  | 
24 | CN1CCN(c2nccc3[nH]c(-c4n[nH]c5cc(F)c(-c6cnn(C)c6)cc45)nc23)CC1 | 0.0857 | 0.004 |  | 113 | 0.0355 | 
25 | CC(C)Nc1cncc(-c2ccc3[nH]nc(-c4cc5c(-c6cccnc6)cncc5[nH]4)c3c2)c1 | 0.67 | 0.021 | 41.9 |  |  | 
26 | CC(C)C(=O)Nc1cncc(-c2ccc3[nH]nc(-c4cc5c(-c6cccnc6)cncc5[nH]4)c3c2)c1 | 0.26 | 0.006 | 34.5 |  |  | 

Row | SMILES | EC50 [1] [µM] | EC50 [2] [µM] | Emax at 0.1 µM [3] [%] | Emax at 0.03 µM [4] [%] | EC50 [5] [µM] | EC50 [6] [µM]
27 | CN1CCN(c2nccc3[nH]c(-c4n[nH]c5ncc(-c6cncc(NC(=O)C7CCCC7)c6)cc45)cc23)CC1 | > 10 | 0.007 | 30.3 |  |  | 
28 | Cc1nnc(-c2ccc3cnc(NC(=O)c4ccnc(N(C)C5CCN(C)CC5)c4)cc3c2)s1 |  |  |  | 25.7 | 0.0027 | 
29 | CCC(=O)Nc1cncc(-c2ccc3[nH]nc(-c4cc5c(-c6cccc(F)c6)cncc5[nH]4)c3c2)c1 | 0.045 | 0.027 | 33.5 |  |  | 
30 | Nc1cncc(-c2cnc3[nH]nc(-c4cc5c(-c6ccccc6F)ccnc5[nH]4)c3c2)c1 | 0.745 | 0.059 | 27.6 |  |  | 
31 | FC1(F)CCN(Cc2cncc(-c3ccc4[nH]nc(-c5nc6c(N7CCCCC7)cncc6[nH]5)c4c3)c2)C1 | 0.02 | 0.022 | 80.1 |  |  | 
32 | CC(C)C(=O)Nc1cncc(-c2ccc3[nH]nc(-c4nc5c(-c6cccnc6)cncc5[nH]4)c3c2)c1 | 0.0051 | 0.01 | 34.4 |  |  | 
33 | Cc1cn(-c2cncc3[nH]c(-c4n[nH]c5ccc(-c6cncc(NC(=O)C7CCC7)c6)nc45)nc23)cn1 | > 10 | 0.008 | 47.2 |  |  | 
34 | Cn1ncc(-c2ccc3cnc(NC(=O)c4cccc(CN5CCCC5)c4)cc3c2)c1CN1CCCCC1 |  |  |  | 27.6 | 1.19 | 
35 | c1cc2[nH]c(-c3n[nH]c4ccc(-c5cncc(CN6CCCCC6)c5)cc34)cc2c(N2CCCCC2)n1 | 4.21 | 0.032 | 48.1 |  |  | 
36 | FC1(F)CCN(Cc2cncc(-c3ccc4[nH]nc(-c5cc6c(N7CCCCC7)ccnc6[nH]5)c4n3)c2)C1 | 5.27 | 0.03 | 37.6 |  |  | 
37 | CC(C)Nc1cncc(-c2ccc3[nH]nc(-c4cc5c(-c6cccnc6)ccnc5[nH]4)c3n2)c1 | 0.255 | 0.025 | 47.2 |  |  | 
38 | FC1(F)CCN(Cc2cncc(-c3ccc4[nH]nc(-c5nc6c(-c7ccsc7)cncc6[nH]5)c4c3)c2)C1 | 0.0018 | 0.015 | 81.3 |  |  | 
39 | Fc1cccc(-c2nccc3[nH]c(-c4n[nH]c5ccc(-c6cncc(CN7CCCCC7)c6)nc45)cc23)c1 | 3.75 | 0.071 | 48 |  |  | 
40 | O=C(Nc1c[nH]nc1C(=O)Nc1cncc(-c2cccc(F)c2)c1)c1cncc(OC2CCNCC2)c1 | 1.6 | 0.012 |  | 89.5 | 0.339 | 
41 | CCC(=O)Nc1cncc(-c2ccc3[nH]nc(-c4cc5c(-c6cc(F)cc(CNS(C)(=O)=O)c6)cncc5[nH]4)c3c2)c1 | 0.244 | 0.022 | 29.4 |  |  | 
42 | CN(C)Cc1cncc(-c2cnc3[nH]nc(-c4nc5c(-c6ccsc6)cncc5[nH]4)c3c2)c1 | 0.057 | 0.01 | 91.3 |  |  | 
43 | FC1(F)CCN(Cc2cncc(-c3cnc4[nH]nc(-c5cc6c(-c7ccncc7)cccc6[nH]5)c4c3)c2)C1 | 0.708 | 0.076 | 29.2 |  |  | 
44 | c1cc2[nH]c(-c3n[nH]c4ncc(-c5cncc(CN6CCCCC6)c5)cc34)cc2cn1 | 1.54 | 0.007 | 39.7 |  |  | 
45 | CC(C)CC(=O)Nc1cncc(-c2cc3c(-c4cc5cccnc5[nH]4)n[nH]c3cn2)c1 | > 10 | 0.013 | 40.4 |  |  | 
46 | CC(C)(C)C(=O)Nc1cncc(-c2ccc3[nH]nc(-c4cc5c(-c6ccncc6)ccnc5[nH]4)c3c2)c1 | > 10 | 0.02 | 44.4 |  |  | 
47 | c1ncc(-c2ccc3[nH]nc(-c4cc5c(-c6ccoc6)nccc5[nH]4)c3c2)cn1 | 1.91 | 0.033 | 40.2 |  |  | 
48 | CC(C)C(=O)Nc1cncc(-c2ccc3[nH]nc(-c4nc5c(-c6ccccc6F)cncc5[nH]4)c3c2)c1 | 0.004 | 0.01 |  | 102 | 3 | 0.03
49 | Nc1cncc(-c2ccc3[nH]nc(-c4cc5c(-c6ccccn6)ccnc5[nH]4)c3c2)c1 | 0.0224 | 0.013 | 46.1 |  |  | 
50 | O=C(Nc1cncc(-c2ccc3[nH]nc(-c4cc5ccncc5[nH]4)c3n2)c1)C1CCCC1 | 2.63 | 0.012 |  | 50.3 |  | 0.03
51 | CCC(=O)Nc1cncc(-c2ccc3[nH]nc(-c4nc5c(-c6cccc(F)c6)cncc5[nH]4)c3c2)c1 | 0.0046 | 0.061 |  | 139 |  | 0.03
